Results published in article PMC4945764, “Effect of flecainide derivatives on sarcoplasmic reticulum calcium release suggests a lack of direct action on the cardiac ryanodine receptor” (British Journal of Pharmacology, 2016).

Legend:
[1] = molecular target: T1, cardiac ryanodine receptor (RyR2) (Homo sapiens, UniProt Q92736); assay: single-channel recording of purified hRyR2 in planar lipid bilayers, +[…] mV, cytosolic to luminal K+ current; type: biochemical
T1 construct: recombinant eGFP-hRyR2, purified from HEK293 cells

[2] = molecular target: T2, Nav1.5 channel (Homo sapiens, UniProt Q14524); assay: INa recording, use-dependent block at […] Hz ([…] QX-FL); type: cell-based
T2 construct: gene SCN5A; recombinant Nav1.5 in HEK293 (H-Flp/Nav1.5) cells

[3] = molecular target: T1, cardiac ryanodine receptor (RyR2); assay: single-channel recording of purified hRyR2 in planar lipid bilayers; association and dissociation rates of block; type: biochemical
[4] = molecular target: T2, Nav1.5 channel; assay: INa recording, use-dependent block at […] Hz ([…] NU-FL); type: cell-based

T1 sequence (Q92736 whole entry): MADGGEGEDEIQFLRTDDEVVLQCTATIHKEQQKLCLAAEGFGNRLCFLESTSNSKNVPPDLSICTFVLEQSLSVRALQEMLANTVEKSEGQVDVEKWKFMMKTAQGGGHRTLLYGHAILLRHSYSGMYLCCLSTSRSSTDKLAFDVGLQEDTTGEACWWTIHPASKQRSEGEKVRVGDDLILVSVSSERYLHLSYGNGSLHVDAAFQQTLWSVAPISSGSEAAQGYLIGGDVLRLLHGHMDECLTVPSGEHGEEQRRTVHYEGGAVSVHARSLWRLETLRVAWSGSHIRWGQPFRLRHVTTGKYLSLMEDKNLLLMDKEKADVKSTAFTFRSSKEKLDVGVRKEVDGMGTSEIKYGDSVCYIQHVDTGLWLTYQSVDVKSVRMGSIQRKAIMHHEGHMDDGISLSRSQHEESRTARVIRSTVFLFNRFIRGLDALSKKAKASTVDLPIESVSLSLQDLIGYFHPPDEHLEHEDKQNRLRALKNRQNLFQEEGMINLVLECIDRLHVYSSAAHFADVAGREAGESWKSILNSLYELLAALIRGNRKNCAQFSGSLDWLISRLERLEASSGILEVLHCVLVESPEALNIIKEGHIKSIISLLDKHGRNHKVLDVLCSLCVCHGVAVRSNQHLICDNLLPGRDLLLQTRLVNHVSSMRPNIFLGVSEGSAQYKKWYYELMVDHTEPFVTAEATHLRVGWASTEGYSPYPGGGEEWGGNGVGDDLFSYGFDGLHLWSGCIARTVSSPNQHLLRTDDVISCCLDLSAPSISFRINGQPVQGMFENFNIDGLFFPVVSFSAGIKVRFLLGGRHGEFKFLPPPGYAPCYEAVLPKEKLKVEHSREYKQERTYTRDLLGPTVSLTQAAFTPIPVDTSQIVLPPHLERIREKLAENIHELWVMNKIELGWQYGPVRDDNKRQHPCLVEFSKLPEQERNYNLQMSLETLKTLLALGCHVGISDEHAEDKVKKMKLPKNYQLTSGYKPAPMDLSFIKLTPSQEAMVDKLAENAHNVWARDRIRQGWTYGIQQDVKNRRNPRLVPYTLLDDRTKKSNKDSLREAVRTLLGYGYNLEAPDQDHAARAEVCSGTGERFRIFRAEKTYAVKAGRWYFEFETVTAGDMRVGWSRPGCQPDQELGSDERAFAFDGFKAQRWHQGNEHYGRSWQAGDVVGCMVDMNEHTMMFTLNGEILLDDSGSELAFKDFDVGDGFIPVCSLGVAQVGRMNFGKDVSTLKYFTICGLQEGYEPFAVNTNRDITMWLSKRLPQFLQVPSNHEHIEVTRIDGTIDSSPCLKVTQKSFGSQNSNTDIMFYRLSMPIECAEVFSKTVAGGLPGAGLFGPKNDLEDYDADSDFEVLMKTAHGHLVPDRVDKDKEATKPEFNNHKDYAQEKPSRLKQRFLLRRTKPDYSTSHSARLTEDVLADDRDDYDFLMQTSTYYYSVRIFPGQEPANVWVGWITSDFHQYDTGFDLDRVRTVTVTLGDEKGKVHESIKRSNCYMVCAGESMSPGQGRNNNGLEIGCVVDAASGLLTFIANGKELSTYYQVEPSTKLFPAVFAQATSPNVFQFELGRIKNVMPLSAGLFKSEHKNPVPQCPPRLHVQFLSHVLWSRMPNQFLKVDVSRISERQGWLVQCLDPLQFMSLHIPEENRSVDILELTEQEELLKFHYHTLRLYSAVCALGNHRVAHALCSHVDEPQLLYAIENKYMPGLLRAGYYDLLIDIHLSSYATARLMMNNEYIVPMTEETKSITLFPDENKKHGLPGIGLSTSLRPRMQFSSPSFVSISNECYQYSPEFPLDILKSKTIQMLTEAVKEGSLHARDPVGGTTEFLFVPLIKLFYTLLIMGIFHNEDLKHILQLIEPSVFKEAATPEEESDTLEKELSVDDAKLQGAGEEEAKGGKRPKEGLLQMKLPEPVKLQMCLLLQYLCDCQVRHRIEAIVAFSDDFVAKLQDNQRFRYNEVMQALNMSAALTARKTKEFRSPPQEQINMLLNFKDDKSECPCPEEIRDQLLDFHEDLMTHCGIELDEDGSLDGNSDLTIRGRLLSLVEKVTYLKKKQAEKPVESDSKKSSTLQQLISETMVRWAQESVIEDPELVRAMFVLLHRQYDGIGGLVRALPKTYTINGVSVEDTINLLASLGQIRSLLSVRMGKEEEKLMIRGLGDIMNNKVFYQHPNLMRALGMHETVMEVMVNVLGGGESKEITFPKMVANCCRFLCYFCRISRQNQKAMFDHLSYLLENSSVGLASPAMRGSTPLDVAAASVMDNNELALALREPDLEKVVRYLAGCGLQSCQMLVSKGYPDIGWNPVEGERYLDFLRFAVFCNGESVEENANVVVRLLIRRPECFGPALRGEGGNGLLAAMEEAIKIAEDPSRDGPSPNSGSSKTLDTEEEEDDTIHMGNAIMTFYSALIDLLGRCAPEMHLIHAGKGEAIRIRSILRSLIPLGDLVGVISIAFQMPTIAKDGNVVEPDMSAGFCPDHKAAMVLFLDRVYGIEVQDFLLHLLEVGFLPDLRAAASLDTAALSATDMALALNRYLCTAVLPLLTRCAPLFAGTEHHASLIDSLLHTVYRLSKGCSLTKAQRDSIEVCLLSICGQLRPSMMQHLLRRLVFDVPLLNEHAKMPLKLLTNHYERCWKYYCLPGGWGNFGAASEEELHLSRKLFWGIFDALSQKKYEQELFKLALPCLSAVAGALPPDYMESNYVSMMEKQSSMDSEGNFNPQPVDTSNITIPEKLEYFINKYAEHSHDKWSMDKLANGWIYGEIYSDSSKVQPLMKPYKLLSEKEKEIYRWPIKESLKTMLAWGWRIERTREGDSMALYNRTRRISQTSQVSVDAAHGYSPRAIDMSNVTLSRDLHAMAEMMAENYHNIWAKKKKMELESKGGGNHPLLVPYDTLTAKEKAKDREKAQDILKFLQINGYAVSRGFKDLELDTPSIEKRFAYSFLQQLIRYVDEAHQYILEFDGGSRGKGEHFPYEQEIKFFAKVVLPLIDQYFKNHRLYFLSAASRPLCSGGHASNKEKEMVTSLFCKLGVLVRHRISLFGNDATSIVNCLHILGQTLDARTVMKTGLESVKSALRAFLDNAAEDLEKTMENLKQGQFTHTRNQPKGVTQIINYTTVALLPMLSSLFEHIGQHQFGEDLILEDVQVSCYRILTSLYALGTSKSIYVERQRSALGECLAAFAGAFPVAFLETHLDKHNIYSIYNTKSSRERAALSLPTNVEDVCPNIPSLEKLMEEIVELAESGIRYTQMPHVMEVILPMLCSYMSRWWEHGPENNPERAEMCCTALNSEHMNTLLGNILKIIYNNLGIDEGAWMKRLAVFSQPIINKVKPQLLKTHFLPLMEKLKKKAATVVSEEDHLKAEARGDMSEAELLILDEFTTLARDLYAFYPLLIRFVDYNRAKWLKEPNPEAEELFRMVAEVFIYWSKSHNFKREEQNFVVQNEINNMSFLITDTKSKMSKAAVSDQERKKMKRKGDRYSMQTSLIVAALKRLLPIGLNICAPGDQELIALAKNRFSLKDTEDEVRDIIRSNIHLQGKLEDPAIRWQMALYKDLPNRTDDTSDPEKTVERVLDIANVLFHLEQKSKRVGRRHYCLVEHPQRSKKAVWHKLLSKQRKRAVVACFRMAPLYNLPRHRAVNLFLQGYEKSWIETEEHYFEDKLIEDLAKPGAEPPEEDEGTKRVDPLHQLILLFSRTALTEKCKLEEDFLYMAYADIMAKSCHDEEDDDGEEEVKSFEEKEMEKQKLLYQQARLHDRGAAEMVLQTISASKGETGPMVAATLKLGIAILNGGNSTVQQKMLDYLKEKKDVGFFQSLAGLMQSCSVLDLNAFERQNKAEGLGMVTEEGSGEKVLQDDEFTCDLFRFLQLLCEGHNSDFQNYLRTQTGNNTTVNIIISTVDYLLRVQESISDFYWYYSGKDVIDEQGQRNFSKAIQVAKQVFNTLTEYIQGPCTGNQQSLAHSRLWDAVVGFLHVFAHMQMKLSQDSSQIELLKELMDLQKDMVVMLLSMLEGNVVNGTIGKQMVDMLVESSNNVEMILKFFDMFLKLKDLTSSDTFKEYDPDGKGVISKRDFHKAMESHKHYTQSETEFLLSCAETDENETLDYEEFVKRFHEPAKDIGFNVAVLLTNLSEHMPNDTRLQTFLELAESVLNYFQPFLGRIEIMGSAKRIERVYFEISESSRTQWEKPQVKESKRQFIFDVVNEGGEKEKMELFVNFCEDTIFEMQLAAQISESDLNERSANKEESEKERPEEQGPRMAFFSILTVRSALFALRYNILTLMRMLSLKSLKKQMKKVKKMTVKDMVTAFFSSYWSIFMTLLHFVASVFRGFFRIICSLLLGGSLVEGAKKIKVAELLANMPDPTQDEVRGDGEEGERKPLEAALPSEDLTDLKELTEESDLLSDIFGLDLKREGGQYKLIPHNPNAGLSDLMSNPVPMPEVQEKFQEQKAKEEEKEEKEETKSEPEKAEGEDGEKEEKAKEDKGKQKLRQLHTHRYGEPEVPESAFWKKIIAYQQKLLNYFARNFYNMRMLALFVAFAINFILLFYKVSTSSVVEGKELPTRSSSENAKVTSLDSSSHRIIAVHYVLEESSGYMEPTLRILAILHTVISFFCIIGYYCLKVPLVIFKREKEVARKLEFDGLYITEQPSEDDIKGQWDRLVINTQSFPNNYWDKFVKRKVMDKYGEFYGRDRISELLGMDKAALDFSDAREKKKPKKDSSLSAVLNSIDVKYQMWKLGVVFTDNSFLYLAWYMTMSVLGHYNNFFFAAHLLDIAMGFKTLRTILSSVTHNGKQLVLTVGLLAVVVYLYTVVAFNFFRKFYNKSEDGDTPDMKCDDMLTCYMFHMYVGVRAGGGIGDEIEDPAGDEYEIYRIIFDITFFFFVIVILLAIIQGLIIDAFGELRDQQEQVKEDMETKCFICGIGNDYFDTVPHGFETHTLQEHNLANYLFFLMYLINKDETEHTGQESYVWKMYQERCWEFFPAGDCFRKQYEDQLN

Row | Kd [1] [µM] | Structure (SMILES) | INa recording, use-dependent block at 10 Hz (10 μM QX-FL) [2] | kon [3] [M⁻¹ s⁻¹] | INa recording, use-dependent block at 10 Hz (10 and 100 μM NU-FL) [4]
1 | 13.1 ± 1.89 | O=C(NCC1CCCCN1)c1cc(OCC(F)(F)F)ccc1OCC(F)(F)F (centres unmarked) [flecainide] | – | – | –
2 | – | C[N+]1(C)CCCCC1CNC(=O)c1cc(OCC(F)(F)F)ccc1OCC(F)(F)F (centres unmarked) [QX-FL] | Use‐dependent block (UDB) of voltage gated Na^+ channel current (INa) by flecainide analogues, NU‐FL and QX‐FL. | 9.1e+08 ± 3e+07 | –
3 | – | O=C(NCCN1CCOCC1)c1cc(OCC(F)(F)F)ccc1OCC(F)(F)F [NU-FL] | – | 6.2e+08 ± 5e+07 | Use‐dependent block (UDB) of voltage gated Na^+ channel current (INa) by flecainide analogues, NU‐FL and QX‐FL.
